Key:
[1] = test system: DU145 (human prostate cancer); assay: in vitro cytotoxicity against DU145 cancer cell line; format: cell-based; details: DU145 cells; for in vitro cytotoxicity (activity against the cancer cell line): data shown in FIG. 2
Experimental: (§1) FIGS. 2A and 2B. In vitro cytotoxicity against two invasive cancer cell lines, DU145 (human prostate cancer) and A2058 (human melanoma) were determined for different analogs.
(§2) Four examples of compounds of structure II with R═—C(O)R or —C(O)OR′ were prepared as depicted in FIG. 2 and their in vitro cytotoxicity against two invasive cancer cell lines, DU145 (human prostate cancer) and A2058 (human melanoma) were determined.

A2058 (human melanoma) = assay: in vitro cytotoxicity against A2058 cancer cell line; format: cell-based; details: A2058 cells; for in vitro cytotoxicity (activity against the cancer cell line): data shown in FIG. 2
Experimental: as §1, §2

[2] = test system: Hut 78 cells (cutaneous T-cell lymphoma, CTCL); assay: CTCL tumor model: Hut 78 cells injected subcutaneously into NSG mice; format: in vivo; details: 20 mg/kg orally (gavage), 3 consecutive days/week; treatment started at tumor size approx. 200 mm^3; vs vehicle
Experimental: NSG (NOD. Cg-Prkdcscid II2rgtm1Wjl/SzJ) mice (5 to 7 weeks of age) were obtained from an-animal in-house breeding facility. The facility mice stock derived from mice obtained from Jackson Laboratory. All animal experiments were conducted in accordance with protocol approved by the City of Hope Beckman Research Institute IACUC.
CTCL tumor model: 3 million of Hut 78 cells in 100 μl (cells in PBS:Matrigel=1:1) injected subcutaneously.
The compound stock of 60 mg/ml was made in DMSO and diluted to 2 mg/ml in 30% Solutol. The compound was administered orally (by gavage) at 10 μl per gram of mice body weight in a dose of 20 mg/kg for 3 consecutive days/week.
100 μl of 3×10^6 Hut78 cells were injected subcutaneously into mice left flanks. The treatments were initiated when the tumor size reached approximately 200 mm^3. The compound or the vehicle alone were administered for 3 consecutive days/week.

SMILES: CN1C(=O)[C@@]2(SC(=O)c3ccccc3)C[C@](C)(C#N)[C@H](c3ccc4c(c3)OCO4)N2C(=O)[C@]1(C)SC(=O)c1ccccc1 (relative stereo) [LEO-16-1836]
- in vitro cytotoxicity (activity against the cancer cell line) [1]: good activity
- in vitro cytotoxicity (activity against the cancer cell line) (A2058 (human melanoma)): good activity

SMILES: CN1C(=O)[C@@]2(SC(=O)Cc3ccccc3)C[C@](C)(C#N)[C@H](c3ccc4c(c3)OCO4)N2C(=O)[C@]1(C)SC(=O)Cc1ccccc1 (relative stereo) [LEO-16-1835]
- in vitro cytotoxicity (activity against the cancer cell line) [1]: good activity
- in vitro cytotoxicity (activity against the cancer cell line) (A2058 (human melanoma)): good activity

SMILES: CC(=O)S[C@@]1(C)C(=O)N2[C@@H](c3ccc4c(c3)OCO4)[C@@](C)(C#N)C[C@]2(SC(C)=O)C(=O)N1C [LEO-16-1845, S,S′-((3S,6S,7S,8aS)-6-(benzo[d][1,3]dioxol-5-yl)-7-cyano-2,3,7-trimethyl-1,4-dioxohexahydropyrrolo[1,2-c]pyrazine-3,8a(6H)-diyl) diethanethioate]
- inhibition of the tumor size [2]: 86.5%

SMILES: CC(=O)S[C@@]1(C)C(=O)N2[C@@H](c3ccc4c(c3)OCO4)[C@@](C)(C#N)C[C@]2(SC(C)=O)C(=O)N1C (relative stereo) [LEO-16-1833, Rel-S, S′-((3S,6S,7S,8aS)-6-(benzo[d][1,3]dioxol-5-yl)-7-cyano-2,3,7-trimethyl-1,4-dioxohexahydropyrrolo[1,2-c]pyrazine-3,8a(6H)-diyl) diethanethioate]
- activity compared with the corresponding ETP structure I (p=2) ([1]; FIG. 2): nearly identical
- in vitro cytotoxicity (activity against the cancer cell line) [1]: good activity
- activity compared with the corresponding ETP structure I (p=2) (A2058 (human melanoma); FIG. 2): nearly identical
- in vitro cytotoxicity (activity against the cancer cell line) (A2058 (human melanoma)): good activity
